This is an account of results in patent US20090209019A1, “Bioartificial Renal Tubule” (TOKAI UNIVERSITY EDUCATIONAL SYSTEM, priority 2006, published 2009).

Like-named read-outs stand apart in the source and are kept apart here. Marks after values point to notes of the source that are not given here.

For assay [1], the system named is Madin-Darby canine kidney (MDCK) cells. To be noted: cells lacking contact inhibition by action of HGF; cited from earlier work.
Assay [2] concerns AP-1 transactivation. To be noted: cited from earlier work.
For assay [3], the system named is MEN-1 and MEK-2. To be noted: cited from earlier work.
The subject of assay [4] is LLC-PK1 cells. To be noted: 1% DMSO, DMEM-HG, 0 day to third day. Here is the method:
On each 6-well plate, 5×10^5 LLC-PK1 cells were seeded. […] Furthermore, two groups of the cells cultured in (4) a DMEM-HG medium and (5) a DMEM-HG medium containing 1% DMSO were checked. The cells on 0 day, the first day, the second day, and the third day after seeding were colored with trypan blue and then measured for number.

In assay [5] the test system is LLC-PK1 cells. To be noted: DMEM medium containing 50 μg/ml U0126 for two weeks. The text has this:
In both groups, the medium was circulated outside the hollow fibers of the module in a closed system. […] On the fourth day after culture, three of the modules of each group were fixed with glutaraldehyde and were then observed in vertical cross section by scanning electron microscopy (SEM).

Assay [6] has as its system LLC-PK1 cells. To be noted: 50 μM U0126 and 1% DMSO in DMEM-HG, 0 day to sixth day.
Description: On each transwell filter unit, 2×10^6 Lewis-lung cancer porcine kidney (LLC-PK1) cells, which were cryopreserved porcine proximal renal tubular epithelial cell lines, were seeded. […] The LLC-PK1 cells on 0 day, the first day, the second day, the third day, and the sixth day after seeding were colored with trypan blue and then measured for number for each group. The LLC-PK1 cells were gently washed with a sterilized PBS solution containing no magnesium or calcium and were then trypsin-treated with 1 ml of a trypsin-EDTA solution at 37° C. for 15 minutes. The treated cells (1 ml) were added to 4 ml of DMEM, were colored with trypan blue, and were then measured for number with a hemocytometer. Measurement was performed three times for each group.
For assay [7], the system named is LLC-PK1 cells. Here is the method:
In lumens of hollow fibers made of an ethylene-vinyl alcohol (EVAL) copolymer, which forms membranes placed in mini-modules (a membrane area of 65 cm^2), 2×10^8 […] (LLC-PK1) cells, which were porcine proximal renal tubular epithelial cell lines, were seeded. The cells were cultured in such a manner that a DMEM-HG medium was circulated inside and outside the hollow fibers at a rate of 0.25 ml/min. In this operation, the transmembrane pressure was maintained at zero. […] The leakage of urea nitrogen, the leakage of creatinine, the amount of reabsorbed glucose, and the amount of reabsorbed Na^+ were measured for 24 hours.
Method of measuring absorption and leakage: the absorption and leakage are calculated using the following formula:
Absorption rate (leaking rate)=(C0×V0−CI×(VI−VR))/C2V2
wherein C0 represents the concentration of a substance in a discharged external solution, V0 represents the volume of the discharged external solution, CI represents the concentration of the substance in a fed external solution, VI represents the volume of the fed external solution, VR represents the volume of the external solution remaining outside the hollow fibers at the end of an experiment, C2 represents the concentration of the substance in a fed internal solution, and V2 represents the volume of the fed internal solution.

Assay [8] concerns ERK1/2.
Description: In each of 6-well plates, 5×10^5 LLC-PK1 cells were seeded. The cells were divided into three groups on the following day (0 day). […] Then the media (D) and (U) were replaced with a DMEM-HG medium. The cells of each group were further cultured for three days. The cells were subjected to Western blot analysis for ERK1/2 on 0 day, the first day, the second day, the third day, and the sixth day.
The cultured LLC-PK1 cells were used in the form of a cytolytic solution for Western blot analysis. The sampled cells of each group were rinsed with ice-chilled PBS and were then centrifuged at 4° C. for five minutes at 1500 rpm. The centrifugate was collected and then maintained at −80° C.
Proteins were taken from 50 μL of each of ice-chilled cytolytic solutions containing 20 mM Tris-HCl (pH 7.5), 150 mM NaCl, 1 mM Na2EDTA, 1 mM EGTA, 1% Triton, 2.5 mM sodium pyrophosphate, 1 mM β-glycerophosphate, 1 mM Na3VO4 (sodium orthovanadate), and 1 μg/ml leupeptin. The proteins were centrifuged at 4° C. for 15 minutes at 15000×g, whereby soluble proteins were extracted. The protein concentration of each cytolytic solution was measured with a protein assay kit (Protein Assay Rapid Kit; Wako, Osaka, Japan). […] Proteins (20 μg) in each LLC-PK1 cytolytic solution were analyzed with SDS-PAGE (polyacrylamide gel electrophoresis) using a 12.5% polyacrylamide gel (e-PAGEL; ATTO, Tokyo, Japan). […]
Where [9] appears, read: 50 μM U0126, days 3-4, mean ± SEM, n = 4.

As for `COc1cccc(-c2cc(=O)c3ccccc3o2)c1N` [PD-98059], in assay [1], the “contact inhibition of MDCK cells” value is on record as “restoring the contact inhibition”.

As for `N#CC(=C(N)Sc1ccccc1N)C(C#N)=C(N)Sc1ccccc1N` [U0126, 1,4-diamino-2,3-dicyano-1,4-bis[2-aminophenylthio]butadiene], in assay [2], the AP-1 transactivation result was “suppressor of AP-1 transactivation”. For the same compound, in assay [3], the “inhibition of MEK-1 and MEK-2” value is on record as “direct inhibition”. Further, the “change in number of LLC-PK1 cells” value in assay [4] (10 μM) is “not sufficiently prevented from increasing in number”. Moreover, the “change in number of LLC-PK1 cells” value in assay [4] (30 μM) is “clearly prevented from proliferating”. For the same compound, the “change in number of LLC-PK1 cells” value in assay [4] (50 μM) is “clearly prevented from proliferating”. Besides, in assay [5], the “maintenance of confluent monolayer in hollow fibers (SEM), FIG. 5 legend” value was “confluent monolayers are substantially maintained”. Moreover, the “change in number of LLC-PK1 cells” value in assay [6] is “prevented from significantly increasing in number”. For the same compound, in assay [7] (50 μM U0126), the “amount of reabsorbed Na+ compared with control group” value is “significantly greater”; the “amount of reabsorbed glucose compared with control group” value was “greater than that in the control group, though there is no significant difference”; the “leakage of creatinine (Cr) compared with control group” value is recorded as “less than that in the control group, though there is no significant difference”; the “leakage of urea nitrogen (UN) compared with control group” value is recorded as “significantly less”. Also, in assay [7] (setting [9]), the “Leakage Cr” value turned out to be 3.3 ± 0.5%, the “Leakage UN” value was 3.6 ± 0.7^b %, the “Reabsorption Glucose” value turned out to be 63.9 ± 19.7 mg/day and the “Reabsorption Na+” value was 1.26 ± 0.10^b mEq/day. Moreover, in assay [1], the “contact inhibition of MDCK cells” value is on record as “restoring the contact inhibition”. Further, the “activated ERK1/2” value in assay [8] (50 μM U0126 and 1% DMSO, first, second and third day) is listed as “suppressed”. Further, in assay [8] (sixth day, three days after removal of U0126), the “activated ERK1/2 after replacing the medium with U0126-free DMEM-HG” value is reported as “Activated ERK1/2 is expressed”.
